The target of one assay is PI3K α (Homo sapiens (Human), UniProt P42336). The experiment in a line: PI3K α kinase assay. Type of assay: biochemical.
Another assay addresses PI3K β (Homo sapiens (Human), UniProt P42338). Kind of assay: PI3K β kinase assay. Type of assay: biochemical. The conditions noted are these: Table 2.
The next assay concerns the target PI3K δ (Homo sapiens (Human), UniProt O00329). The experiment in a line: PI3K δ kinase assay. In kind it is biochemical.
Another assay relates to PC3. The experiment in a line: PC3 tumor cell line proliferation assay. To be noted: Homo sapiens, PC-3; Table 2, in vitro IC50. In kind it is cell-based.
In a further assay the target is mTORC (Homo sapiens (Human), UniProt P42345). Kind of assay: mTORC in vitro IC50 (Table 2). Type of assay: biochemical.
Another assay addresses PI3K γ (Homo sapiens (Human), UniProt P48736). The experiment in a line: PI3K γ kinase assay. Type of assay: biochemical. To be noted: Table 2.

Where two headings read alike, the source gives them in different places. A value given as a limit tells only on which side of the number the result lay.

PI3K α, sequence (P42336 whole entry): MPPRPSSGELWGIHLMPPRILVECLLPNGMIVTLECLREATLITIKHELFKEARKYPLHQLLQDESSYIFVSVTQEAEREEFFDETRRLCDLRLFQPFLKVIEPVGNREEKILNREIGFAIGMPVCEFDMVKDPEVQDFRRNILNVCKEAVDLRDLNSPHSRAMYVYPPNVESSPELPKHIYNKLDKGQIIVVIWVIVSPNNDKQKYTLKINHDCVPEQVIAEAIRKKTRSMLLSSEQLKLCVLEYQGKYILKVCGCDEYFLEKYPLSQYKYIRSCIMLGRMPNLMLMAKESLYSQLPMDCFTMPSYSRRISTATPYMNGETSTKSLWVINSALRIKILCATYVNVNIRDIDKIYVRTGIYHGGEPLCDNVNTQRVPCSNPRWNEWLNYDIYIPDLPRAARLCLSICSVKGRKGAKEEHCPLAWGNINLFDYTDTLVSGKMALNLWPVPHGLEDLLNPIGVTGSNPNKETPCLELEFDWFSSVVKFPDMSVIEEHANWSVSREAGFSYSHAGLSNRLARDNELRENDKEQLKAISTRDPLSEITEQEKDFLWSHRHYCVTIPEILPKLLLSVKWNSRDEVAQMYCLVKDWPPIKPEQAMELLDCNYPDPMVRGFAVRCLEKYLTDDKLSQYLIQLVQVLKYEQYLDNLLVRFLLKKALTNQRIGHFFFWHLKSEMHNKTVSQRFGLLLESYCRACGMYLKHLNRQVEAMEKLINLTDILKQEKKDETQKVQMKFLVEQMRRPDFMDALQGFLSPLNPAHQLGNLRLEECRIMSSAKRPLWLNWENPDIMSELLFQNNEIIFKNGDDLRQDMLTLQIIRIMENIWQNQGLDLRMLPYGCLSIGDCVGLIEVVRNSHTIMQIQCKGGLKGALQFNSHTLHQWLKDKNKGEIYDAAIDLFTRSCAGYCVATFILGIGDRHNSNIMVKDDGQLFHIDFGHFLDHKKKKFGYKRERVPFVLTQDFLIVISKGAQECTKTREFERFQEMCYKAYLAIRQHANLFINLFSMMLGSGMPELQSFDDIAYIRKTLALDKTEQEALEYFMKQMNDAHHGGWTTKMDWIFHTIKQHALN
PI3K α, sequence (P27986 whole entry partner): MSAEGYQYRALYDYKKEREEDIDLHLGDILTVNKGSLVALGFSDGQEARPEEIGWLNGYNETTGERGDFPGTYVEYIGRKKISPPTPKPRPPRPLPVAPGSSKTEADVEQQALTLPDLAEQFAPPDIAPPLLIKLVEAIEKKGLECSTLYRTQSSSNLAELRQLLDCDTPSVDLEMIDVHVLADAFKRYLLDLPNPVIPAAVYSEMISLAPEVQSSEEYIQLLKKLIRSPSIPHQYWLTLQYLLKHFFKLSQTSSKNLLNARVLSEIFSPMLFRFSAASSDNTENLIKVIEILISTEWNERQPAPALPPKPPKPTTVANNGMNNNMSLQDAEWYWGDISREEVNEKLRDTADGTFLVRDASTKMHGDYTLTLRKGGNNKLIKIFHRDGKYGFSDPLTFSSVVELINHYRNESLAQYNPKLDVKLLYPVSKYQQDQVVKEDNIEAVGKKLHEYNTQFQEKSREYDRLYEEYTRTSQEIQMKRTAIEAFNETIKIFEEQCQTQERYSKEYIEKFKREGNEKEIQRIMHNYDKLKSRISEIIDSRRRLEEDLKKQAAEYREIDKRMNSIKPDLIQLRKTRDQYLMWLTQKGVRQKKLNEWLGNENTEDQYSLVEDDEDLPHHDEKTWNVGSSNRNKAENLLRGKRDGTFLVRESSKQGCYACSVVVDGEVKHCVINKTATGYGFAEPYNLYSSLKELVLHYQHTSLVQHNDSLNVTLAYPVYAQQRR
PI3K γ, sequence (P48736 whole entry, species assumed): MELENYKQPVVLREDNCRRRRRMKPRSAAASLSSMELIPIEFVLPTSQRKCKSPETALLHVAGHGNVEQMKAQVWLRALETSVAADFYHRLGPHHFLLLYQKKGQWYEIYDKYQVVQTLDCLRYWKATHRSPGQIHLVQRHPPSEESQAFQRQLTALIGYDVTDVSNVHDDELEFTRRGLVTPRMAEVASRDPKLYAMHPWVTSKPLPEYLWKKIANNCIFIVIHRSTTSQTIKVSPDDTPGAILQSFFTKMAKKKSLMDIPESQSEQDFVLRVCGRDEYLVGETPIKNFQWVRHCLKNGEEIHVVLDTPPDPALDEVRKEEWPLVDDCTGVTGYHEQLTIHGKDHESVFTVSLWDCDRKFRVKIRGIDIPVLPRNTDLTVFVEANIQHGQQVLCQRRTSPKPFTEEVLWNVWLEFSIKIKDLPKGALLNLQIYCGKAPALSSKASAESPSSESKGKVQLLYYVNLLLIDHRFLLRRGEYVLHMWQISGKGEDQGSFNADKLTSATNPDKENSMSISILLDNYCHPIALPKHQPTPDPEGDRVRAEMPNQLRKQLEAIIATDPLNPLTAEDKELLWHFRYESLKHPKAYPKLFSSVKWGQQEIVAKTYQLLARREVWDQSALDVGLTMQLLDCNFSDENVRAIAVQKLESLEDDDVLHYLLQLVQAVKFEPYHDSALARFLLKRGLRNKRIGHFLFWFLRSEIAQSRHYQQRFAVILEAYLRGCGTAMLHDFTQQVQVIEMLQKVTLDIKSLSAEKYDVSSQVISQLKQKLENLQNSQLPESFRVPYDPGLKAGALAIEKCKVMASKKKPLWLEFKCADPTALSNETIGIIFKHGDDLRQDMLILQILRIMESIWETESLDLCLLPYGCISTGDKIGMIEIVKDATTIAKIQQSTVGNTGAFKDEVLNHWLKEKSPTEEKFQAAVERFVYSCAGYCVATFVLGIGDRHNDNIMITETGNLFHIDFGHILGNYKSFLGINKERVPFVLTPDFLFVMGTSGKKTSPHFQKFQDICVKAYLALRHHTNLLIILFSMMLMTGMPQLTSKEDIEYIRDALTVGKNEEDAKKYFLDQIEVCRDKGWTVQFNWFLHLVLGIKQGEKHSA
mTORC, sequence (P42345 1360-2549): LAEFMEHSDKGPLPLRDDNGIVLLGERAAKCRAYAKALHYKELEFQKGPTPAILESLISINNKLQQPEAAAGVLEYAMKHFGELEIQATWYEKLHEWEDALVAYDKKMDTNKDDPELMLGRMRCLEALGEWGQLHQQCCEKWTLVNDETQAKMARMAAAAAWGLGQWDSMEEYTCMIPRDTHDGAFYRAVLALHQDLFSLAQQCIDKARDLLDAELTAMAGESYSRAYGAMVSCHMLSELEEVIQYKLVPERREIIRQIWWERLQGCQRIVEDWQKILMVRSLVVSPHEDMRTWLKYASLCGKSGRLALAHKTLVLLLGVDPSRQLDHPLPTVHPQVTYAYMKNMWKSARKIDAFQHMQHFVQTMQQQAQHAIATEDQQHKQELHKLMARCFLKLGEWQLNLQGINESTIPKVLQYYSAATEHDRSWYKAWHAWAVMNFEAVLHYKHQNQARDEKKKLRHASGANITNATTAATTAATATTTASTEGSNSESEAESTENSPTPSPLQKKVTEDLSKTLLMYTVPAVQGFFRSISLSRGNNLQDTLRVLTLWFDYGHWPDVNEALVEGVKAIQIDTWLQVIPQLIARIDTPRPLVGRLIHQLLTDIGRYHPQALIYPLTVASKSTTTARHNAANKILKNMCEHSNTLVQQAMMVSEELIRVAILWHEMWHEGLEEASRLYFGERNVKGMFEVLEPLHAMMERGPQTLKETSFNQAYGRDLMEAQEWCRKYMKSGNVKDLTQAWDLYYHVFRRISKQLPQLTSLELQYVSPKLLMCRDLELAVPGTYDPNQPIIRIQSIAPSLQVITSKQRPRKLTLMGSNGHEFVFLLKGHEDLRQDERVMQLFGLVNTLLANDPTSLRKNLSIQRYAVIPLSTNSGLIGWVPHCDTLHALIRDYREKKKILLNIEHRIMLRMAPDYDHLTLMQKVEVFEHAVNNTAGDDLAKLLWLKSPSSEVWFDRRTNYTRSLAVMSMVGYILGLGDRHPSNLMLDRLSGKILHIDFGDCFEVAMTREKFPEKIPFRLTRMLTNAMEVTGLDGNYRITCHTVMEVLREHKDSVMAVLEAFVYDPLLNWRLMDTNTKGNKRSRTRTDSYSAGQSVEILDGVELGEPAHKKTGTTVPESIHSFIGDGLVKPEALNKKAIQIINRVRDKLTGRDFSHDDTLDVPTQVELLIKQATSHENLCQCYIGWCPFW
Procedure for PC3: The assay is performed in a 96 well microtiter plate using Alamar Blue reduction. […] A compound disclosed herein is diluted in Tumor Cell Media and added in a 10 ul volume. […] A volume of 10 uL of Alamar Blue reagent is added to each well and plates are incubated for 3 hours at 37 C and 5% CO2. Alamar Blue fluoresce is read at 560Ex/590Em, and IC50 values are calculated using GraphPad Prism 5.
Procedure for mTORC: The compounds described herein and any other mTor inhibitors known in the art can be tested against recombinant mTOR (Invitrogen) in an assay containing 50 mM HEPES, pH 7.5, 1 mM EGTA, 10 mM MgCl2, 2.5 mM, 0.01% Tween, 10 μM ATP (2.5 μCi of μ-32P-ATP), and 3 μg/mL BSA. Rat recombinant PHAS-1/4EBP1 (Calbiochem; 2 mg/mL) is used as a substrate. Reactions are terminated by spotting onto nitrocellulose, which is washed with 1M NaCl/1% phosphoric acid (approximately 6 times, 5-10 minutes each). Sheets are dried and the transferred radioactivity quantitated by phosphorimaging.
For instance, one can use Invitrogen's LanthaScreen™ Kinase assay to test the inhibitors of mTOR disclosed herein. This assay is a time resolved FRET platform that measures the phosphorylation of GFP labeled 4EBP1 by mTOR kinase. The kinase reaction is performed in a white 384 well microtitre plate. The total reaction volume is 20 ul per well and the reaction buffer composition is 50 mM HEPES pH7.5, 0.01% Polysorbate 20, 1 mM EGTA, 10 mM MnCl2, and 2 mM DTT. In the first step, each well receives 2 ul of test compound in 20% dimethylsulphoxide resulting in a 2% DMSO final concentration. Next, 8 ul of mTOR diluted in reaction buffer is added per well for a 60 ng/ml final concentration. To start the reaction, 10 ul of an ATP/GFP-4EBP1 mixture (diluted in reaction buffer) is added per well for a final concentration of 10 μM ATP and 0.5 μM GFP-4EBP1. The plate is sealed and incubated for 1 hour at room temperature. […] The plate is sealed, incubated for 1 hour at room temperature, and then read on a plate reader set up for LanthaScreen™ TR-FRET. Data is analyzed and IC50s are generated using GraphPad Prism 5.

As for `CCOC(=O)Cn1nc(-c2cc3cc(O)ccc3[nH]2)c2c(N)ncnc21` [Compound 28], the IC50 on PI3K α (Table 2) is more than 500 nM; against PI3K β, more than 500 nM; against PI3K δ (Table 2), more than 500 nM; in the assay on PC3, more than 500 nM; on mTORC it was less than 500 nM.
For the compound `CC(=O)N1CCC(n2nc(-c3cc4cc(O)ccc4[nH]3)c3c(N)ncnc32)CC1` [Compound 30], the half-maximal inhibitory concentration (IC50) was more than 500 nM against PI3K α; more than 500 nM against PI3K β; more than 500 nM against PI3K δ (Table 2); more than 500 nM in the assay on PC3; less than 25 nM against mTORC.
With `Nc1ncnc2c1c(-c1cc3cc(O)ccc3[nH]1)nn2C1CCN(C(=O)C2CC2)CC1` [Compound 31], the IC50 against PI3K α is more than 500 nM; on PI3K β it was more than 500 nM; at PI3K δ (Table 2), less than 500 nM; in the assay on PC3, more than 500 nM; at mTORC, less than 25 nM.
In the case of `Nc1ncnc2c1c(-c1cc3cc(O)ccc3[nH]1)nn2C1CCOCC1` [Compound 42], the IC50 is more than 500 nM at PI3K α; more than 500 nM on PI3K β; less than 100 nM on PI3K δ (Table 2); more than 500 nM in the assay on PC3; less than 5 nM on mTORC.
With `CNC(=O)CCn1nc(-c2cc3cc(O)ccc3[nH]2)c2c(N)ncnc21` [Compound 43], the IC50 against PI3K α (Table 2), against PI3K β, on PI3K δ (Table 2) and against mTORC was more than 500 nM in each case.
Turning to `Cc1nccn1CCn1nc(-c2cc3cc(O)ccc3[nH]2)c2c(N)ncnc21` [Compound 44], the IC50 at PI3K α (Table 2) was more than 500 nM; at PI3K β, more than 500 nM; against PI3K δ it was more than 500 nM; at mTORC, less than 100 nM.
Consider `Nc1ncnc2c1c(-c1cc3c(Cl)cccc3[nH]1)nn2C1CCOCC1` [Compound 48], for which the IC50 against PI3K α (Table 2) was more than 500 nM; against PI3K β it was more than 500 nM; against PI3K γ it was more than 500 nM; against PI3K δ (Table 2), more than 500 nM; at mTORC, less than 50 nM.
As to `Nc1ncnc2c1c(-c1cc3cc(O)ccc3[nH]1)nn2C1CC(N2CCOCC2)C1` (centres unmarked) [Compound 49], the concentration for half-maximal inhibition (IC50) was more than 500 nM against PI3K α; more than 500 nM against PI3K β; less than 500 nM at PI3K γ; less than 500 nM at PI3K δ (Table 2); less than 10 nM at mTORC.
For `CC(C)n1nc(-c2cc3cccc(Cl)c3[nH]2)c2c(N)ncnc21` [Compound 50], the IC50 was more than 500 nM against PI3K α (Table 2); more than 500 nM against PI3K β; less than 500 nM at PI3K γ; less than 500 nM on PI3K δ (Table 2); less than 50 nM at mTORC.
For the compound `Nc1ncnc2c1c(-c1cc3cccc(Cl)c3[nH]1)nn2C1CCOCC1` [Compound 51], the 50% inhibitory concentration (IC50) was more than 500 nM against PI3K α (Table 2); more than 500 nM on PI3K β; less than 500 nM against PI3K γ; less than 500 nM against PI3K δ (Table 2); less than 50 nM on mTORC.
Consider `CN1CCN(C2CC(n3nc(-c4cc5cc(O)ccc5[nH]4)c4c(N)ncnc43)C2)CC1` (centres unmarked) [Compound 52], for which the IC50 was more than 500 nM at PI3K α; more than 500 nM on PI3K β; more than 500 nM on PI3K γ; less than 500 nM against PI3K δ (Table 2); less than 500 nM on mTORC.
Take `COc1ccc2cc(-c3nn(C4CCOCC4)c4ncnc(N)c34)[nH]c2c1` [Compound 59]: the IC50 on PI3K α (Table 2), on PI3K β, against PI3K γ and on mTORC was more than 500 nM throughout.
Take `Nc1ncnc2c1c(-c1cc3ccc(O)cc3[nH]1)nn2C1CCOCC1` [Compound 60]: the IC50 on PI3K α (Table 2) is more than 500 nM; at PI3K β it was more than 500 nM; against PI3K γ, less than 100 nM; against mTORC it was less than 100 nM.
Take `COc1ccc(Cl)c2cc(-c3nn(C4CCOCC4)c4ncnc(N)c34)[nH]c12` [Compound 61]: the IC50 is more than 500 nM on PI3K α (Table 2); more than 500 nM against PI3K β; more than 500 nM on PI3K γ; more than 500 nM against PI3K δ (Table 2); less than 25 nM against mTORC.
On to `Nc1ncnc2c1c(-c1cc3cccc(O)c3[nH]1)nn2C1CCOCC1` [Compound 62], for which the IC50 on PI3K α (Table 2) was more than 500 nM; against PI3K β, more than 500 nM; against PI3K γ it was more than 500 nM; against PI3K δ (Table 2) it was less than 100 nM; against mTORC, less than 5 nM.

The values are drawn from patent publication US10172858B2, “Combination pharmaceutical compositions and uses thereof” (Intellikine LLC, priority 2011, dated 2019).
